Reference: patent US20250145585A1, “HETEROCYCLIC INHIBITORS OF IGF-1R FOR TREATMENT OF DISEASE” (HORIZON THERAPEUTICS IRELAND DAC, priority 2023, published 2025)

Biological target: T1, IGF-1R (Homo sapiens, UniProt P08069)
T1 construct: expressed in transfected cells
Assay: Example B-1: IGF-1R Assay (PC3 cells stimulated with IGF1, AlphaLISA on cell lysates)
Format: cell-based
Details: compound two hours, IGF1 200 ng/mL for 30 min, read-out: IC50, Biological Activity against IGF-1R (Table B1)
Outline: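 PC3 cells serum-starved 2 h, treated 2 h with 3-fold serially diluted compound, then stimulated 30 min with IGF1 (200 ng/mL final). Lysates analysed by AlphaLISA; % inhibition calculated relative to vehicle and EC80 controls, IC50 derived.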

T1 sequence (P08069 31-1367): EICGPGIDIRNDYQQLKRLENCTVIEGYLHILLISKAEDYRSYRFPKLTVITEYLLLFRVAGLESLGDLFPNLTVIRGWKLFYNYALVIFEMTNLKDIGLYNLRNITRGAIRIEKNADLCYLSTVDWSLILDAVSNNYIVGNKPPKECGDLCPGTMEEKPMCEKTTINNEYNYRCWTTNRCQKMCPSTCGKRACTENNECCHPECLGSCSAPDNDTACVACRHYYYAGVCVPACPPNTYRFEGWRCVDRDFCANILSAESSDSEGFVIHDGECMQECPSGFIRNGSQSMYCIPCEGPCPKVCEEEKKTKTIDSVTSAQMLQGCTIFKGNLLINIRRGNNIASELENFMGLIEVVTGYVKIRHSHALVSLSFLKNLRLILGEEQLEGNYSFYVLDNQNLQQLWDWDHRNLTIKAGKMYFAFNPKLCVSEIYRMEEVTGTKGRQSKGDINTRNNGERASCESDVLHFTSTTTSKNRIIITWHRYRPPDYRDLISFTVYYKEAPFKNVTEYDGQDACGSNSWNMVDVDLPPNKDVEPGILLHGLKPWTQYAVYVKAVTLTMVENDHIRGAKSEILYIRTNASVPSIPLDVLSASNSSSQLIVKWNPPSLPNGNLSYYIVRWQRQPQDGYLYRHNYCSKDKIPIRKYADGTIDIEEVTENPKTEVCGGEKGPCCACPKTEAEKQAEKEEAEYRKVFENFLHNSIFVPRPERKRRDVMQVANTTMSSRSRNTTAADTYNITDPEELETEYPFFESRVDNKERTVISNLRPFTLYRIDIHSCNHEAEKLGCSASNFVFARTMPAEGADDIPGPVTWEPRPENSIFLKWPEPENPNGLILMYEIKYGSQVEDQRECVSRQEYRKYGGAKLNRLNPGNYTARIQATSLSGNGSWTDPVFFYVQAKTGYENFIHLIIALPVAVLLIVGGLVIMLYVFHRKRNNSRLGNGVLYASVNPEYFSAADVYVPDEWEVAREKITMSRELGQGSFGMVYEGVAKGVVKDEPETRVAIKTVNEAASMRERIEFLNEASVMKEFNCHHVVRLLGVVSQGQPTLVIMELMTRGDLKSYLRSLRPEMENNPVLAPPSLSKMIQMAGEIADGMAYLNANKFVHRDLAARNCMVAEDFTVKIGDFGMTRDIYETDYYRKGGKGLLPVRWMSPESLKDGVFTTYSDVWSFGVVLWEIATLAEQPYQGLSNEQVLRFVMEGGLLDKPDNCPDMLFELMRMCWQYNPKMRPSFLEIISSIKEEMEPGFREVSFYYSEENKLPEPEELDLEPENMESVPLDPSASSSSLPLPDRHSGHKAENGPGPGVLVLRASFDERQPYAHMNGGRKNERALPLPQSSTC

| Structure (SMILES) | IC50 |
| --- | --- |
| Cc1ccccc1NC(=O)Nc1cc(CN2C(=O)N(c3ccc(SC(F)(F)F)cc3)C(=O)C2(C)C)ccn1 [Compound 366, 1-(4-((5,5-dimethyl-2,4-dioxo-3-(4-((trifluoromethyl)thio)phenyl)imidazolidin-1-yl)methyl)pyridin-2-yl)-3-(o-tolyl)urea] | ≤ 500 nM |
| CC1(C)C(=O)N(c2ccc(SC(F)(F)F)cc2)C(=O)N1Cc1cccc(Nc2c(Nc3ccccc3)c(=O)c2=O)n1 [Compound 367, 1-((6-((3,4-dioxo-2-(phenylamino)cyclobut-1-en-1-yl)amino)pyridin-2-yl)methyl)-5,5-dimethyl-3-(4-((trifluoromethyl)thio)phenyl) imidazolidine-2,4-dione] | 500 to 2000 nM |
| CC1(C)C(=O)N(c2ccc(SC(F)(F)F)cc2)C(=O)N1Cc1ccnc(NC(=O)Nc2ccc(F)cc2)c1 [Compound 368, 1-(4-((5,5-dimethyl-2,4-dioxo-3-(4-((trifluoromethyl)thio)phenyl)imidazolidin-1-yl)methyl)pyridin-2-yl)-3-(4-fluorophenyl)urea] | ≤ 500 nM |
| CC1(C)C(=O)N(c2ccc(SC(F)(F)F)cc2)C(=O)N1Cc1ccnc(NC2CCCC2)c1 [Compound 369, 1-((2-(cyclopentylamino)pyridin-4-yl)methyl)-5,5-dimethyl-3-(4-((trifluoromethyl)thio)phenyl) imidazolidine-2,4-dione] | ≤ 500 nM |
| CC(C)NC(=O)Nc1cc(CN2C(=O)N(c3ccc(SC(F)(F)F)cc3)C(=O)C2(C)C)ccn1 [Compound 370, 1-(4-((5,5-dimethyl-2,4-dioxo-3-(4-((trifluoromethyl)thio)phenyl)imidazolidin-1-yl)methyl)pyridin-2-yl)-3-isopropylurea] | ≤ 500 nM |
| Cc1ccc(NC(=O)Nc2cc(CN3C(=O)N(c4ccc(SC(F)(F)F)cc4)C(=O)C3(C)C)ccn2)cc1 [Compound 371, 1-(4-((5,5-dimethyl-2,4-dioxo-3-(4-((trifluoromethyl)thio)phenyl)imidazolidin-1-yl)methyl)pyridin-2-yl)-3-(p-tolyl)urea] | ≤ 500 nM |
| Cc1cccc(NC(=O)Nc2cc(CN3C(=O)N(c4ccc(SC(F)(F)F)cc4)C(=O)C3(C)C)ccn2)c1 [Compound 372, 1-(4-((5,5-dimethyl-2,4-dioxo-3-(4-((trifluoromethyl)thio)phenyl)imidazolidin-1-yl)methyl)pyridin-2-yl)-3-(m-tolyl)urea] | ≤ 500 nM |
| CC1(C)C(=O)N(c2ccc(SC(F)(F)F)cc2)C(=O)N1Cc1ccnc(NC(=O)NC2CCC(F)(F)C2)c1 (stereo not shown) [Compound 374, 1-(3,3-difluorocyclopenty)-3-(4-((5,5-dimethyl-2,4-dioxo-3-(4-((trifluoromethyl)thio)phenyl)imidazolidin-1-yl)methyl)pyridin-2-yl)urea] | ≤ 500 nM |
| CC1(C)C(=O)N(c2ccc(SC(F)(F)F)cc2)C(=O)N1Cc1ccnc(NC(=O)Nc2ccccc2F)c1 [Compound 375, 1-(4-((5,5-dimethyl-2,4-dioxo-3-(4-((trifluoromethyl)thio)phenyl)imidazolidin-1-yl)methyl)pyridin-2-yl)-3-(2-fluorophenyl)urea] | ≤ 500 nM |
| CC1(C)C(=O)N(c2ccc(SC(F)(F)F)cc2)C(=O)N1Cc1ccnc(NC(=O)Nc2ccc(C#N)cc2)c1 [Compound 376, 1-(4-cyanophenyl)-3-(4-((5,5-dimethyl-2,4-dioxo-3-(4-((trifluoromethyl)thio)phenyl)imidazolidin-1-yl)methyl)pyridin-2-yl)urea] | ≤ 500 nM |
| CC1(C)C(=O)N(c2ccc(SC(F)(F)F)cc2)C(=O)N1Cc1ccnc(NC(=O)Nc2ccc(Cl)cc2)c1 [Compound 377, 1-(4-chlorophenyl)-3-(4-((5,5-dimethyl-2,4-dioxo-3-(4-((trifluoromethyl)thio)phenyl)imidazolidin-1-yl)methyl)pyridin-2-yl)urea] | 500 to 2000 nM |
| CC1(C)C(=O)N(c2ccc(SC(F)(F)F)cc2)C(=O)N1Cc1ccnc(NC2CCC2)c1 [Compound 378, 1-((2-(cyclobutylamino)pyridin-4-yl)methyl)-5,5-dimethyl-3-(4-((trifluoromethyl)thio)phenyl) imidazolidine-2,4-dione] | ≤ 500 nM |
| CC(C)Nc1cc(CN2C(=O)N(c3ccc(SC(F)(F)F)cc3)C(=O)C2(C)C)ncn1 [Compound 379, 1-((6-(isopropylamino)pyrimidin-4-yl)methyl)-5,5-dimethyl-3-(4-((trifluoromethyl)thio)phenyl) imidazolidine-2,4-dione] | 500 to 2000 nM |
| CC1(C)C(=O)N(c2ccc(SC(F)(F)F)cc2)C(=O)N1Cc1ccnc(N)c1F [Compound 380, 1-((2-amino-3-fluoropyridin-4-yl)methyl)-5,5-dimethyl-3-(4-((trifluoromethyl)thio)phenyl) imidazolidine-2,4-dione] | ≤ 500 nM |
| CCC(C)Nc1cc(CN2C(=O)N(c3ccc(SC(F)(F)F)cc3)C(=O)C2(C)C)ccn1 (stereo not shown) [Compound 381, 1-((2-(sec-butylamino)pyridin-4-yl)methyl)-5,5-dimethyl-3-(4-((trifluoromethyl)thio)phenyl)imidazolidine-2,4-dione] | ≤ 500 nM |
| CC(C)Nc1nccc(CN2C(=O)N(c3ccc(SC(F)(F)F)cc3)C(=O)C2(C)C)c1F [Compound 382, 1-((3-fluoro-2-(isopropylamino)pyridin-4-yl)methyl)-5,5-dimethyl-3-(4-((trifluoromethyl)thio)phenyl) imidazolidine-2,4-dione] | 2000 to 10000 nM |

| Structure (SMILES) | IC50 |
| --- | --- |
| CC(C)Nc1cc(CN2C(=O)N(c3ccc(SC(F)(F)F)cc3)C(=O)C2(C)C)cc(F)n1 [Compound 383, 1-((2-fluoro-6-(isopropylamino)pyridin-4-yl)methyl)-5,5-dimethyl-3-(4-((trifluoromethyl)thio)phenyl) imidazolidine-2,4-dione] | 2000 to 10000 nM |
| CC(C)Nc1cc(CN2C(=O)N(c3ccc(SC(F)(F)F)cc3)C(=O)C2(C)C)c(F)cn1 [Compound 384, 1-((5-fluoro-2-(isopropylamino)pyridin-4-yl)methyl)-5,5-dimethyl-3-(4-((trifluoromethyl)thio)phenyl) imidazolidine-2,4-dione] | ≤ 500 nM |
| CC(C)C#Cc1cc(CN2C(=O)N(c3ccc(SC(F)(F)F)cc3)C(=O)C2(C)C)cnc1N [Compound 385, 1-((6-amino-5-(3-methylbut-1-yn-1-yl)pyridin-3-yl)methyl)-5,5-dimethyl-3-(4-((trifluoromethyl)thio)phenyl) imidazolidine-2,4-dione] | 500 to 2000 nM |
| CC(C)Nc1cc(CN2C(=O)N(c3ccc(SC(F)(F)F)cc3)C(=O)C2(C)C)cnn1 [Compound 386, 1-((6-(isopropylamino)pyridazin-4-yl)methyl)-5,5-dimethyl-3-(4-((trifluoromethyl)thio)phenyl) imidazolidine-2,4-dione] | 2000 to 10000 nM |
| CC(C)(C)Nc1cc(CN2C(=O)N(c3ccc(SC(F)(F)F)cc3)C(=O)C2(C)C)ccn1 [Compound 387, 1-((2-(tert-butylamino)pyridin-4-yl)methyl)-5,5-dimethyl-3-(4-((trifluoromethyl)thio)phenyl) imidazolidine-2,4-dione] | 500 to 2000 nM |
| CC1(C)C(=O)N(c2ccc([S+]([O-])C(F)(F)F)cc2)C(=O)N1Cc1ccnc(N)c1 (stereo not shown) [Compound 393, 1-((2-aminopyridin-4-yl)methyl)-5,5-dimethyl-3-(4-((trifluoromethyl)sulfinyl)phenyl) imidazolidine-2,4-dione] | ≤ 500 nM |
| CSc1ccc(N2C(=O)N(Cc3ccnc(N)c3)C(C)(C)C2=O)cc1 [Compound 395, 1-((2-aminopyridin-4-yl)methyl)-5,5-dimethyl-3-(4-(methylthio)phenyl)imidazolidine-2,4-dione] | 2000 to 10000 nM |
| CC1(C)C(=O)N(c2ccc(SC(F)(F)F)cc2)C(=O)N1Cc1cc(N)ncn1 [Compound 396, 1-((6-aminopyrimidin-4-yl)methyl)-5,5-dimethyl-3-(4-((trifluoromethyl)thio)phenyl) imidazolidine-2,4-dione] | ≤ 500 nM |
| CC1(C)C(=O)N(c2ccc(SC(F)(F)F)cc2)C(=O)N1Cc1ccnc(NC(=O)Nc2cccnc2)c1 [Compound 397, 1-(4-((5,5-dimethyl-2,4-dioxo-3-(4-((trifluoromethyl)thio)phenyl)imidazolidin-1-yl)methyl)pyridin-2-yl)-3-(pyridin-3-yl)urea] | ≤ 500 nM |
| CC1(C)C(=O)N(c2ccc(SC(F)(F)F)cc2)C(=O)N1Cc1ccnc(NC(=O)Nc2ccncc2)c1 [Compound 398, 1-(4-((5,5-dimethyl-2,4-dioxo-3-(4-((trifluoromethyl)thio)phenyl)imidazolidin-1-yl)methyl)pyridin-2-yl)-3-(pyridin-4-yl)urea] | ≤ 500 nM |
| CC1(C)C(=O)N(c2ccc(SC(F)(F)F)cc2)C(=O)N1Cc1ccnc(Nc2ncccn2)c1 [Compound 399, 5,5-dimethyl-1-((2-(pyrimidin-2-ylamino)pyridin-4-yl)methyl)-3-(4-((trifluoromethyl)thio)phenyl) imidazolidine-2,4-dione] | ≤ 500 nM |
| CC1(C)C(=O)N(c2ccc(SC(F)(F)F)cc2)C(=O)N1CCc1cn[nH]c1 [Compound 400, 1-(2-(1H-pyrazol-4-yl)ethyl)-5,5-dimethyl-3-(4-((trifluoromethyl)thio)phenyl) imidazolidine-2,4-dione] | 2000 to 10000 nM |
| CC1(C)CNc2cc(N3C(=O)N(Cc4ccnc(N)c4)C(C)(C)C3=O)ccc21 [Compound 401, 1-((2-aminopyridin-4-yl)methyl)-3-(3,3-dimethylindolin-6-yl)-5,5-dimethylimidazolidine-2,4-dione] | ≤ 500 nM |
| CC1(C)CNc2ncc(CN3C(=O)N(c4ccc(SC(F)(F)F)cc4)C(=O)C3(C)C)cc21 [Compound 405, 1-((3,3-dimethyl-2,3-dihydro-1H-pyrrolo[2,3-b]pyridin-5-yl)methyl)-5,5-dimethyl-3-(4-((trifluoromethyl)thio)phenyl) imidazolidine-2,4-dione] | 2000 to 10000 nM |
| Cc1c[nH]c2ncc(CN3C(=O)N(c4ccc(SC(F)(F)F)cc4)C(=O)C3(C)C)cc12 [Compound 406, 5,5-dimethyl-1-((3-methyl-1H-pyrrolo[2,3-b]pyridin-5-yl)methyl)-3-(4-((trifluoromethyl)thio)phenyl) imidazolidine-2,4-dione] | 2000 to 10000 nM |
